Assay results taken from PMC4059246 (Journal of Medicinal Chemistry, 2014).
Where two headings read alike, the source gives them in different places.

Key:
RPA194 [1] = assay: Western blotting for RPA194 in U2OS cell lysates; type: cell-based
NCL [2] = conditions: U2OS cells, 0.5 μM, 3 h (Figure 2B)
[3] = after 25 mg/kg ip dose; cited from earlier work
NCI60 cancer cell lines = conditions: cited from earlier work
tumor burden = conditions: mouse xenograft assays; cited from earlier work
U2OS cells = assay: Cell viability, WST-1 assay; conditions: U2OS cells, 0, 0.5, 5 μM, 48 h, WST-1 (Figure 5)
[4] = Human liver microsomal stability assay; conditions: for In vitro stability compared with compound 2: human liver microsomes
NCL [5] = assay: Western blotting for NCL in U2OS cell lysates; conditions: U2OS cells, 0, 0.1, 1, 10 μM, 3 h (Figure 4)
RPA194 [6] = conditions: for Effect on expression of RPA194: U2OS cells, 0.5 μM, 3 h, representative images (Figure 2A)
[7] = U2OS cells, 0, 0.1, 1, 10 μM, 3 h (Figure 4)
[8] = RPA194 and NCL assays in U2OS cells

SMILES | Degradation of RPA194 by Western blotting (RPA194 [1]; [7]) | Effect on nucleolar localization of NCL (NCL [2]) | Effect on cell viability (U2OS cells) | further results
CC(CN(C)C)NC(=O)c1cccn2c(=O)c3cc4ccccc4cc3nc12 (centres unmarked) [Compound 11, N-[2-(Dimethylamino)-1-methylethyl]-12-oxo-12H-benzo[g]pyrido[2,1-b]quinazoline-4-carboxamide] | caused degradation of RPA194 | decreased the nucleolar localization of NCL |  | 
CN(C)CCNC(=O)c1cccn2c(=O)c3cc4ccccc4cc3nc12 [Compound 2, N-[2-(Dimethylamino)ethyl]-12-oxo-12H-benzo[g]pyrido[2,1-b]quinazoline-4-carboxamide] | caused degradation of RPA194 |  | profound loss of cell viability | half-life [3]: 2.5 h; Anticancer activity (NCI60 cancer cell lines): broad and potent anticancer activity; Tumor burden (tumor burden): reduced tumor burden; Major metabolites ([4]; identification of the major metabolites, method not described): N-dealkylation as one of several major metabolites; Expression of NCL by Western blotting (NCL [5]): largely unaffected except at very high (10 μM) concentrations
CCN(CC)C1CCN(C(=O)c2cccn3c(=O)c4cc5ccccc5cc4nc23)C1 (centres unmarked) [Compound 34, 4-[3-(Diethylamino)pyrrolidine-1-carbonyl]-12H-benzo[g]pyrido[2,1-b]quinazoline-12-one] |  |  |  | Biological activity (in words) (RPA194 [6]; [8]): inactive
O=C(NC1CNC1)c1cccn2c(=O)c3cc4ccccc4cc3nc12 [Compound 12, N-(Azetidin-3-yl)-12-oxo-12H-benzo[g]pyrido[2,1-b]quinazoline-4-carboxamide] |  | decreased the nucleolar localization of NCL |  | 
CC(C)N1CCN(C(=O)c2cccn3c(=O)c4cc5ccccc5cc4nc23)CC1 [Compound 31, 4-(4-Isopropylpiperazine-1-carbonyl)-12H-benzo[g]pyrido[2,1-b]quinazoline-12-one] |  |  |  | Biological activity (in words) (RPA194 [6]): inactive
CN(C)[C@H]1CCN(C(=O)c2cccn3c(=O)c4cc5ccccc5cc4nc23)C1 [Compound 33, 4-[(3S)-3-(Dimethylamino)pyrrolidine-1-carbonyl]-12H-benzo[g]pyrido[2,1-b]quinazoline-12-one] |  |  |  | Biological activity (in words) (RPA194 [6]; [8]): inactive
CCN(CC)CCNC(=O)c1cccn2c(=O)c3cc4ccccc4cc3nc12 [Compound 10, N-[2-(Diethylamino)ethyl]-12-oxo-12H-benzo[g]pyrido[2,1-b]quinazoline-4-carboxamide] |  | decreased the nucleolar localization of NCL |  | In vitro stability compared with compound 2 [4]: did not improve stability
O=C(NCCN1CCOCC1)c1cccn2c(=O)c3cc4ccccc4cc3nc12 [Compound 36, N-(2-Morpholinoethyl)-12-oxo-12H-benzo[g]pyrido[2,1-b]quinazoline-4-carboxamide] | less potent |  | little or no activity | 
CN(C)CCN(C)C(=O)c1cccn2c(=O)c3cc4ccccc4cc3nc12 [Compound 18, N-[2-(Dimethylamino)ethyl]-N-methyl-12-oxo-12H-benzo[g]pyrido[2,1-b]quinazoline-4-carboxamide] |  |  | little or no activity | Degradation of RPA194 by Western blotting (RPA194 [1]): inactive
CN(C)CCOC(=O)c1cccn2c(=O)c3cc4ccccc4cc3nc12 [Compound 17, 2-(Dimethylamino)ethyl 12-Oxo-12H-benzo[g]pyrido[2,1-b]quinazoline-4-carboxylate] |  |  |  | Biological activity (in words) (RPA194 [6]; [8]): significant loss in potency
O=C(NCCN1CCCCC1)c1cccn2c(=O)c3cc4ccccc4cc3nc12 [Compound 8, 12-Oxo-N-[2-(1-piperidyl)ethyl]-12H-benzo[g]pyrido[2,1-b]quinazoline-4-carboxamide] | caused degradation of RPA194 | decreased the nucleolar localization of NCL | profound loss of cell viability | In vitro stability compared with compound 2 [4]: did not improve stability
CN(C)CCCCNC(=O)c1cccn2c(=O)c3cc4ccccc4cc3nc12 [Compound 14, N-[4-(Dimethylamino)butyl]-12-oxo-12H-benzo[g]pyrido[2,1-b]quinazoline-4-carboxamide] | less potent |  | little or no activity | 
CC(CNC(=O)c1cccn2c(=O)c3cc4ccccc4cc3nc12)N(C)C (centres unmarked) [Compound 13, N-[2-(Dimethylamino)propyl]-12-oxo-12H-benzo[g]pyrido[2,1-b]quinazoline-4-carboxamide] |  | decreased the nucleolar localization of NCL | profound loss of cell viability | Effect on expression of RPA194 (RPA194 [6]): almost complete loss of expression of RPA194
CCN(CC)CCNC(=O)c1cccn2c(=O)c3ccccc3nc12 [Compound 16, N-[2-(Diethylamino)ethyl]-11-oxopyrido[2,1-b]quinazoline-6-carboxamide] |  |  |  | Decrease in potency relative to compound 2 (RPA194 [6]; RPA194/NCL assays in U2OS cells, versus compound 2): over 40 fold
O=C(NCCN1CCCC1)c1cccn2c(=O)c3cc4ccccc4cc3nc12 [Compound 9, 12-Oxo-N-(2-pyrrolidin-1-ylethyl)-12H-benzo[g]pyrido[2,1-b]quinazoline-4-carboxamide] |  | decreased the nucleolar localization of NCL | profound loss of cell viability | Effect on expression of RPA194 (RPA194 [6]): almost complete loss of expression of RPA194; In vitro stability compared with compound 2 [4]: did not improve stability
CN(C)CCNC(=O)c1cccn2c(=O)c3ccccc3nc12 [Compound 15, N-[2-(Dimethylamino)ethyl]-11-oxopyrido[2,1-b]quinazoline-6-carboxamide] | less potent |  | little or no activity | Decrease in potency relative to compound 2 (RPA194 [6]): over 40 fold; Effect on expression of RPA194 (RPA194 [6]): no effect
